The test system of one experiment is AKT. Briefly: AKT In Vivo Target Inhibition (IV), U87MG tumors in athymic rats. The conditions noted are these: Rattus norvegicus, U-87 MG, IV dose 20 mpk, 4 hr post IV dose, n = 2, read-out: p(S9)GSK 3β - % inhibition. How it is done: Exponentially growing U87MG cells derived from a human glioblastoma are implanted subcutaneously in the rear flank of athymic rats. When the tumors reach the size of 200-250 mm^3, compounds are administered to the animals by a single IV injection in a dose-response study or in a time-course study. At the end of each treatment, animals are asphyxiated with CO2. Tumors are harvested by surgical excision, quickly frozen in liquid nitrogen and stored at −80° C. until analysis. Sera are prepared from blood harvested from the heart by cardiac puncture and stored at −80° C. until analysis.
The AKT inhibitor is extracted from serum with acetonitrite/methanol and analyzed alongside an internal standard by LC/MS/MS. […]
Tumors are homogenized in 2 volumes of a lysis buffer containing 25 mM Tris (pH 7.5), Roche complete protease inhibitors, and 1 mM vanadate with Powergen 125 homogenizer, then sequentially passed through an 18 gauge needle and a 23 gauge needle. […] Protein concentrations in the cytoplasmic extracts are determined with a BCA kit. Phospho-GSK3b (pGSK3b) in the soluble extracts is analyzed with the ELISA Kit. For each study, percent inhibitions are calculated relative to the vehicle control group and ANOVA analysis is performed using the JMP software package for the determination of statistical significance.

In another experiment the test system is MCF-7. Briefly: Cell proliferation combination study (CellTiter-Glo). Format: cell-based. How it is done: (§1) The proliferation assay uses the CellTiter-Glo Luminescent Cell Viability Assay System (commercially available from Promega) to determine the cell number of viable cells in culture based on quantitation of the ATP present, which signals the presence of metabolically active cells.
(§2) The cells are plated in 96-well plate at 2000 cells/well in volume of 50 μL medium (DMEM, 10% FBS, 25 mM HEPES, 1.0 mM Sodium Pyruvate, and 0.1 mM Non Essential Amino Acids) except column 1 with medium only as blank control. The plates are incubated overnight at 37° C. and 5% CO2. On the next day, compound stocks are prepared at 40 mM in DMSO (500×) and serially diluted in DMSO in a 96-well round bottom polypropylene plate. Compounds are assayed at 10 concentrations in duplicate, 4 compounds per plate.
(§3) 4 μL of the serial DMSO dilutions are transferred to a 96 deep-well plate and 1 mL complete culture medium is added to create 2× stock for dosing. 50 μL of each 2× dosing stock is gently transferred to the corresponding well of the cell plate resulting in a 0.2% DMSO concentration and a 100 μL final volume. […] medium are added to the Control columns (Column 12) and background columns (Column 1). Cells are incubated with compound for at 37° C., 5% CO2 for 72 hr.
(§4) After incubation, 100 μL of the pre-prepared CellTiter-Glo reagent (Promega, Cat: G7571) is added in each well and then the cells are homogenized by mixing on an orbital shaker for 2 min and incubated at RT for 10 minutes to allow luminescent signal stabilization Luminescent raw data is recorded on Wallac Victor V plate reader and the IC50 value for each compound is generated using percent inhibition data. A four-parameter logistic curve is fit to each dose response.
(§5) Combination studies use the fixed ratio method, where the other therapeutic agent and the compound of the present invention are present in fixed ratios of concentrations corresponding to the IC50 equivalents of single agents. The read out for the combination studies is cell proliferation in respective cell lines using Cell Titer Glo reagents. Controls are processed similarly but without the compounds. Analysis of the data is done according to the method described in Zhao et. Al. (Clinical Cancer Research 10, 7994-8004, Dec. 1, 2004) utilizing an internally developed web based tool. A combination index is calculated for each cell proliferation inhibition activity level according to the equation below. Combination Index at activity level x=[Concentration of other therapeutic agent in the combination at the activity level x/ICx of the other therapeutic agent]+[Concentration of the compound of the present invention in the combination at the activity level x/ICx of the compound of the present invention]

For a further experiment, the system named is RKO. The experiment is described as above. Format: cell-based. The conditions noted are these: with Irinotecan. As to the method:
as §1, §2, §3, §4, §5

For the next experiment, the system named is NCIH460. Described as above. Format: cell-based. As to the method:
as §1, §2, §3, §4, §5

The next experiment has as its system Calu6. The experiment is described as above. Format: cell-based. As to the method:
as §1, §2, §3, §4, §5

For the next experiment, the system named is MDA-MB-231. The experiment is described as above. Format: cell-based. How it is done:
as §1, §2, §3, §4, §5

A further experiment relates to HCC827. The experiment is described as above. Format: cell-based. How it is done:
as §1, §2, §3, §4, §5

Another experiment relates to H1155. The experiment is described as above. Format: cell-based. The conditions noted are these: with Gemcitabine. How it is done:
as §1, §2, §3, §4, §5

The next experiment relates to A2780. The experiment is described as above. Format: cell-based. As to the method:
as §1, §2, §3, §4, §5

The subject of a further experiment is BxPC3. The experiment is described as above. Format: cell-based. As to the method: as §1, §2, §3, §4, §5
The subject of the next experiment is AsPC1. The experiment is described as above. Format: cell-based. As to the method: as §1, §2, §3, §4, §5
The next experiment concerns H1650. Described as above. Format: cell-based. As to the method:
as §1, §2, §3, §4, §5

For a further experiment, the system named is SK0V3. The experiment is described as above. Format: cell-based. How it is done: as §1, §2, §3, §4, §5
For a further experiment, the system named is NCI-H1975. Described as above. Format: cell-based. As to the method: as §1, §2, §3, §4, §5

The structures appear in SMILES notation. Several values for one entry are separate records, joined by “and”; a condition that tells them apart may be missing. Identical values can stand only once.

A word on the inhibition: it is the relative decrease from the control value, in per cent.

Consider `C[C@@H]1CC(=O)Nc2ncnc(N3CCC(c4nc(C(F)(F)F)cn4CCN4CCCC4)CC3)c21` [Example 78, (R)-5-Methyl-4-(4-(1-(2-(pyrrolidin-1-yl)ethyl)-4-(trifluoromethyl)-1H-imidazol-2-yl)piperidin-1-yl)-5,6-dihydropyrido[2,3-d]pyrimidin-7(8H)-one], for which, in the experiment with AKT, the inhibition at 20 mg/kg was 48%.

On to `C[C@@H]1CC(=O)Nc2ncnc(N3CCC(c4nc(C(F)(F)F)cn4CCN4CCCC4)CC3)c21` (single isomer, unassigned) [Example 77], for which the “Combination Index at 50% Inhibition” value was 0.58 in the experiment with MCF-7 (with Erlotinib); 0.10 in the experiment with MCF-7 (with Gemcitabine); 0.60 with MCF-7 (with Paclitaxel); 0.46 in the experiment with MCF-7 (with Rapamycin); 0.74 in the experiment with MCF-7 (with Tamoxifen); 0.83 with RKO. In addition, the “Combination Index at 50% Inhibition” value was 0.76 and 0.91 with NCIH460 (with Cisplatin); 0.82 with NCIH460 (with Docetaxel); 0.64 in the experiment on NCIH460 (with Erlotinib); 0.88 with NCIH460 (with Gemcitabine); 0.86 with Calu6 (with Cisplatin); 0.65 with Calu6 (with Docetaxel). The “Combination Index at 50% Inhibition” value in the experiment on Calu6 (with Erlotinib) was found to be 0.20; in the experiment with Calu6 (with Gemcitabine), 1.16; in the experiment with Calu6 (with Pemetrexed) it was 0.93; in the experiment with Calu6 (with Tasisulam), 1.16; in the experiment with MDA-MB-231 (with Erlotinib) it was 0.05; with MDA-MB-231 (with Gemcitabine), 0.39. Also, the “Combination Index at 50% Inhibition” value with MDA-MB-231 (with Paclitaxel) was 1.13; with MDA-MB-231 (with Rapamycin), 0.01; in the experiment with HCC827 (with Erlotinib, HCC827), 1.87; in the experiment with HCC827 (with Gemcitabine, HCC827), 0.17; in the experiment with HCC827 (with Rapamycin, HCC-827) it was 1.13; with H1155, 0.43. Moreover, the “Combination Index at 50% Inhibition” value worked out at 0.93 in the experiment with A2780 (with Cisplatin); 0.85 with A2780 (with Doxorubicin); 0.36 in the experiment with BxPC3 (with Erlotinib); 1.13 in the experiment with BxPC3 (with Gemcitabine); 0.15 in the experiment on BxPC3 (with Rapamycin); 0.23 in the experiment with AsPC1 (with Erlotinib). For the same compound, the “Combination Index at 50% Inhibition” value in the experiment on AsPC1 (with Gemcitabine) turned out to be 0.23; with AsPC1 (with Rapamycin) it was 0.22; in the experiment with H1650 (with Erlotinib), 0.04; in the experiment with H1650 (with Gemcitabine) it was 0.43; with H1650 (with Rapamycin) it was 0.07; in the experiment with SK0V3 (with Cisplatin) it was 1.00. The “Combination Index at 50% Inhibition” value in the experiment on SK0V3 (with Doxorubicin) is listed as 1.12; with NCI-H1975 (with Cisplatin), 0.77; in the experiment on NCI-H1975 (with Docetaxel), 1.13; in the experiment with NCI-H1975 (with Erlotinib), 0.47; in the experiment with NCI-H1975 (with Gemcitabine), 0.55; in the experiment on NCI-H1975 (with Pemetrexed), 1.73.

Source of the values: patent US8436002B2, “AKT inhibitors” (Eli Lilly and Company, priority 2009, dated 2013).
